These are literature values, as cited in patent publication US20160361357A1, “STABLE HIGH CONCENTRATION STRONTIUM COMPOUNDS AND FORMULATIONS FOR TOPICAL APPLICATION” (Cosmederm Bioscience, Inc., priority 2015, published 2016).

Some results are limits rather than exact numbers.

In data set [1] the target is synaptotagmin-1 (Homo sapiens, UniProt P21579). The following applies: strontium substitutes for calcium; response to TCN activation.
Data set [2] deals with TCN. The following applies: strontium mixed with 70% glycolic acid, pH 0.6 chemical peel.

synaptotagmin-1, sequence (P21579 whole entry, species assumed): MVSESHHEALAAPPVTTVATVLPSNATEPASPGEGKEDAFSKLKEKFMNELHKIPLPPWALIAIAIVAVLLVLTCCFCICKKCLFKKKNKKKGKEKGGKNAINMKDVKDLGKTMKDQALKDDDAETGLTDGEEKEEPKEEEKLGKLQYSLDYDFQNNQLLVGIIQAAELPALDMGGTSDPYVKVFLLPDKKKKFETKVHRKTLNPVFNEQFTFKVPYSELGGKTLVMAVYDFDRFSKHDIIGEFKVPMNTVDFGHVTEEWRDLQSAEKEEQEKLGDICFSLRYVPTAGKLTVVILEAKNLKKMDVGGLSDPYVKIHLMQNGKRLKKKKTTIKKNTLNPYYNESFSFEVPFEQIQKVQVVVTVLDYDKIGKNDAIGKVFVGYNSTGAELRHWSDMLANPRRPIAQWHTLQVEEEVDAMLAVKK

As for `[Sr+2]` [strontium], in data set [1], the “reduction of amplitude of synchronous neurotransmitter release” value was “more than 90%”. Besides, in data set [2], the “burning pain and stinging suppressed” value is given as not below 80%.
